The text below walks through data of US20210269440A1 (BETTA PHARMACEUTICALS CO., LTD, priority 2018, published 2021).

This experiment deals with T1, PD-1/PD-L1 protein/protein interaction (Homo sapiens, UniProt Q9NZQ7).
T1 construct: Recombinant human PD-L1 protein (19-238) with a His-tag at the C-terminus; purchased AcroBiosystems PD1-H5229 (PD-L1); PD1-H5257 (PD-1)
The experiment can be described thus: PD-1/PD-L1 homogenous time-resolved fluorescence (HTRF) binding assay. Particulars: for biological activity (potency), as shown in Table 1: R is the group comprising morpholine. As for the experimental part:
Resolved Fluorescence (HTRF) Binding Assay
The assays were conducted in a standard black 384-well polystyrene plate with a final volume of […]. Inhibitors were first serially diluted in DMSO and then added to the plate wells before the addition of other reaction components. The final concentration of DMSO in the assay was 1%. The assays were carried out at 25° C. in the PBS buffer (pH 7.4) with 0.05% Tween-20 and 0.1% BSA. […] Plates were centrifuged and proteins were preincubated with inhibitors for 40 min. The incubation was followed by the addition of 10 μL of HTRF detection buffer supplemented with Europium cryptate-labeled anti-human IgG (PerkinElmer-AD0212) specific for Fc and anti-His antibody conjugated to SureLight®—Allophycocyanin (APC, PerkinElmer-AD0059H). After centrifugation, the plate was incubated at 25° C. for 60 min. […] Final concentrations in the assay were […] PD1, 10 nM PD-L1, 1 nM europium anti-human IgG and 20 nM anti-His-Allophycocyanin. IC50 determination was performed by fitting the curve of percent control activity versus the log of the inhibitor concentration using the GraphPad Prism 5.0 software.
For orientation: In TR-FRET formats the signal depends on donor and acceptor labels being close together.

[1] abbreviates: HTRF, recombinant human PD-1 (Fc tag) / PD-L1 (His-tag), 25° C., PBS pH 7.4, read-out: IC50.

SMILES strings stand for the structures. Like-named read-outs stand apart in the source and are kept apart here.

T1 sequence (Q9NZQ7 19-238): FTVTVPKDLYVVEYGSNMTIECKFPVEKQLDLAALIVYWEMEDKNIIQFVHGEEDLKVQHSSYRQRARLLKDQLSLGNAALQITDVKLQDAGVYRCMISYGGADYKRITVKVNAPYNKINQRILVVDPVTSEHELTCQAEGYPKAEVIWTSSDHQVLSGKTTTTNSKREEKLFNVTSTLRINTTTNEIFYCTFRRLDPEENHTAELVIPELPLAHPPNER

As a reminder, the IC50 is the concentration that gives 50% inhibition. On to `Cc1c(Nc2nccc3cc(CNC(C)(CO)C(=O)O)cnc23)cccc1-c1cccc(OCCCN2CCOCC2)c1C` (stereo not shown) [Compound 13, 2-(((8-((2,2′-dimethyl-3′-(3-morpholinopropoxy)-[1,1′-biphenyl]-3-yl)amino)-1,7-naphthyridin-3-yl)methyl)amino)-3-hydroxy-2-methylpropanoic acid], for which the IC50 was < 2 nM.
With `Cc1c(Nc2nccc3cc(CN4CCCCC4C(=O)O)cnc23)cccc1-c1cccc2c1CCN2CCCN1CCOCC1` (stereo not shown) [Compound 20, 1-((8-((2-methyl-3-(1-(3-morpholinopropyl)indolin-4-yl)phenyl)amino)-1,7-naphthyridin-3-yl)methyl)piperidine-2-carboxylic acid], the IC50 is > 150 nM.
As to `Cc1c(Nc2nccc3cc(CN4CCCCC4C(=O)O)cnc23)cccc1-c1cccc(N(C)CCCN2CCOCC2)c1C` (stereo not shown) [Compound 52, 1-((8-((2,2′-dimethyl-3′-(methyl(3-morpholinopropyl)amino)-[1,1′-biphenyl]-3-yl)amino)-1,7-naphthyridin-3-yl)methyl)piperidine-2-carboxylic acid], the IC50 was > 150 nM.
The same measure, in the same setting: next, `Cc1c(Nc2nccc3cc(CN4CCCCC4C(=O)O)cnc23)cccc1-c1cccc(OCCCN2CCCC2)c1C` (stereo not shown) [Compound 18, 1-((8-((2,2′-dimethyl-3′-(3-(pyrrolidin-1-yl)propoxy)-[1,1′-biphenyl]-3-yl)amino)-1,7-naphthyridin-3-yl)methyl)piperidine-2-carboxylic acid]: < 2 nM; `Cc1c(Nc2nccc3cc(CNCC(=O)O)cnc23)cccc1-c1cncc(OCCCN2CCOCC2)c1C` [Compound 46, ((8-((2-methyl-3-(4-methyl-5-(3-morpholinopropoxy)pyridin-3-yl)phenyl)amino)-1,7-naphthyridin-3-yl)methyl)glycine]: 10 to 150 nM.
With `Cc1c(Nc2nccc3cc(CN4CCC[C@H]4C(=O)O)cnc23)cccc1-c1ccccc1` [Compound 4, ((8-((2-methyl-[1,1′-biphenyl]-3-yl)amino)-1,7-naphthyridin-3-yl)methyl)proline], the IC50 under setting [1] was 13 nM.
For `Cc1c(Nc2nccc3cc(CN4CCCCC4C(=O)O)cnc23)cccc1-c1cccc(OCCCN2CCC(O)C2)c1C` (stereo not shown) [Compound 19, 1-((8-((3′-(3-(3-hydroxypyrrolidin-1-yl)propoxy)-2,2′-dimethyl-[1,1′-biphenyl]-3-yl)amino)-1,7-naphthyridin-3-yl)methyl)piperidine-2-carboxylic acid], the IC50 is < 2 nM.
Same read-out and setting: as for `Cc1c(NC(=O)NCCN2CCOCC2)cccc1-c1cccc(Nc2nccc3cc(CN4CCCCC4C(=O)O)cnc23)c1C` (stereo not shown) [Compound 53, 1-((8-((2,2′-dimethyl-3′-(3-(2-morpholinoethyl)ureido)-[1,1′-biphenyl]-3-yl)amino)-1,7-naphthyridin-3-yl)methyl)piperidine-2-carboxylic acid], the figure is > 150 nM; as for `CCN(CC(=O)O)Cc1cnc2c(Nc3cccc(-c4cccc(OCCCN5CCOCC5)c4C)c3C)nccc2c1` [Compound 14, N-((8-((2,2′-dimethyl-3′-(3-morpholinopropoxy)-[1,1′-biphenyl]-3-yl)amino)-1,7-naphthyridin-3-yl)methyl)-N-ethylglycine], < 2 nM; as for `Cc1c(Nc2nccc3cc(CN4CCCCC4C(=O)O)cnc23)cccc1-c1cccc(OCCCNC(N)=O)c1C` (stereo not shown) [Compound 25, 1-((8-((2,2′-dimethyl-3′-(3-ureidopropoxy)-[1,1′-biphenyl]-3-yl)amino)-1,7-naphthyridin-3-yl)methyl)piperidine-2-carboxylic acid], > 150 nM.
Regarding `Cc1c(Nc2nccc3cc(CN4CCCCC4C(=O)O)cnc23)cccc1-c1cccc2c1ccn2CCCN1CCOCC1` (stereo not shown) [Compound 34, 1-((8-((2-methyl-3-(1-(3-morpholinopropyl)-1H-indol-4-yl)phenyl)amino)-1,7-naphthyridin-3-yl)methyl)piperidine-2-carboxylic acid], the IC50 was > 150 nM.
As for `Cc1c(Nc2nccc3cc(CNCC(=O)O)cnc23)cccc1-c1cccc(OCCCN2CCOCC2)c1C` [Compound 1, ((8-((2,2′-dimethyl-3′-(3-morpholinopropoxy)-[1,1′-biphenyl]-3-yl)amino)-1,7-naphthyridin-3-yl)methyl)glycine], the “biological activity (potency), as shown in Table 1” value is reported as “much more potent”. Moreover, under setting [1], the IC50 worked out at 0.43 nM.
`Cc1c(Nc2nccc3cc(CNCC(=O)O)cnc23)cccc1-c1ccc(Cl)c(OCCCN2CCOCC2)c1` [Compound 44, ((8-((4′-chloro-2-methyl-3′-(3-morpholinopropoxy)-[1,1′-biphenyl]-3-yl)amino)-1,7-naphthyridin-3-yl)methyl)glycine]: the IC50 is < 2 nM.
Same read-out and setting: as for `Cc1c(Nc2nccc3cc(CN4CCCCC4C(=O)O)cnc23)cccc1-c1cccc(OCCCN2CCOCC2)c1Cl` (stereo not shown) [Compound 38, 1-((8-((2′-chloro-2-methyl-3′-(3-morpholinopropoxy)-[1,1′-biphenyl]-3-yl)amino)-1,7-naphthyridin-3-yl)methyl)piperidine-2-carboxylic acid], the figure is 2 to 10 nM.
The compound `Cc1ccc(-c2cccc(Nc3nccc4cc(CN5CCCCC5C(=O)O)cnc34)c2C)cc1OCCCN1CCOCC1` (stereo not shown) [Compound 42, 1-((8-((2,4′-dimethyl-3′-(3-morpholinopropoxy)-[1,1′-biphenyl]-3-yl)amino)-1,7-naphthyridin-3-yl)methyl)piperidine-2-carboxylic acid] came in with an IC50 of 2 to 10 nM.
Still for that read-out and setting: as for `Cc1c(NC(=O)NCCNCCO)cccc1-c1cccc(Nc2nccc3cc(CN4CCCCC4C(=O)O)cnc23)c1C` (stereo not shown) [Compound 51, 1-((8-((3′-(3-(2-((2-hydroxyethyl)amino)ethyl)ureido)-2,2′-dimethyl-[1,1′-biphenyl]-3-yl)amino)-1,7-naphthyridin-3-yl)methyl)piperidine-2-carboxylic acid], the figure is > 150 nM.
For the compound `Cc1c(Nc2nccc3cc(CN4CCC(C(=O)O)C4)cnc23)cccc1-c1cccc(OCCCN2CCOCC2)c1C` (stereo not shown) [Compound 9, 1-((8-((2,2′-dimethyl-3′-(3-morpholinopropoxy)-[1,1′-biphenyl]-3-yl)amino)-1,7-naphthyridin-3-yl)methyl)pyrrolidine-3-carboxylic acid], under setting [1], the IC50 is 1.2 nM.
Take `Cc1c(Nc2nccc3cc(CN4CCCCC4C(=O)O)cnc23)cccc1-c1cccc(OCCCN2CCOCC2)c1F` (stereo not shown) [Compound 37, 1-((8-((2′-fluoro-2-methyl-3′-(3-morpholinopropoxy)-[1,1′-biphenyl]-3-yl)amino)-1,7-naphthyridin-3-yl)methyl)piperidine-2-carboxylic acid]: the IC50 was 2 to 10 nM.
With `Cc1c(Nc2nccc3cc(CN[C@@H](CO)C(=O)O)cnc23)cccc1-c1cccc(OCCCN2CCOCC2)c1C` [Compound 10, ((8-((2,2′-dimethyl-3′-(3-morpholinopropoxy)-[1,1′-biphenyl]-3-yl)amino)-1,7-naphthyridin-3-yl)methyl)serine], the IC50 under setting [1] turned out to be 0.5 nM.
For the compound `Cc1c(Nc2nccc3cc(CN4CCC[C@H]4C(=O)O)cnc23)cccc1-c1cccc(OCCCN2CCOCC2)c1C` [Compound 3, ((8-((2,2′-dimethyl-3′-(3-morpholinopropoxy)-[1,1′-biphenyl]-3-yl)amino)-1,7-naphthyridin-3-yl)methyl)proline], the “biological activity (potency), as shown in Table 1” value was “much more potent”. For the same compound, the IC50 under setting [1] came to 2 nM.
